Results from patent publication US11813326B2, “Cell-associating immunologic adjuvants for treatment enhancement” (ACADEMIA SINICA, priority 2018, dated 2023).

Legend:
B16-OVA tumors [1] = assay: Adjuvant retention in tumors and cancer cells after intratumoral injection; format: in vivo, B6 mice; conditions: intra-tumoral, 24 hours
Procedure: To validate cell-associating effect of the nanoparticle adjuvant formulation, B6 mice were inoculated subcutaneously with B16-OVA tumors. Nanoparticle-mediated adjuvant retention with the B16 cells was validated using whole body imaging, flow cytometric analysis, and fluorescence microscopy. Dye-labelled STING agonist (2′-[DY-547]-AHC-c-diGMP) was administered in its free form and nanoparticle form intra-tumorally and examined after 24 hours.

B16-OVA tumors [2] = assay: Tumor treatment efficacy of adjuvant plus cisplatin, B16-OVA subcutaneous model; format: in vivo, B6 mice; conditions: intra-tumoral treatment
Procedure: To study the in vivo efficiency of the treatment modality, B6 mice were inoculated subcutaneously with B16-OVA tumors. When the tumors appeared palpable, they were pre-treated with free cGAMP or cGAMP-loaded nanoparticles prior to chemotherapy by cisplatin (CTTP). 24 hours following intra-tumoral adjuvant administration, the mice were given an intra-tumoral cisplatin injection to induce cell death (FIG. 9(a)). These two groups are designated cGAMP+CTTP and NP+CTTP to differentiate the use of free cGAMP and cGAMP-loaded nanoparticles, respectively. For controls, tumor-bearing mice receiving no treatment (placebo), cistplatin only (CTTP only) and cGAMP-loaded nanoparticles only (NP only) were also prepared. For cGAMP administration, 2.5 μg of the adjuvant was administered in 50 μL of solution. For cisplatin administration, 235 μg of the chemodrug was administered in 100 μL of solution. Following the different treatments, the tumor volumes were monitored over time. […] In contrast, no other group had any tumor with complete regression (FIG. 9(b), (c)). […] With the tumor-free surviving mice from the NP+CTTP group, 4 of them were re-challenged with B16-OVA cells on day 60 and compared to animals that had no prior tumor challenge and treatment.

[3] = In vivo immune potentiation after footpad injection (lymph node IFN-β, serum TNF-α); conditions: after footpad administration, mice
Procedure: Immune potentiation by the cd-GMP nanoparticles was further compared to free cd-GMP in vivo in mice. 48 hours following footpad injections, the draining popliteal lymph nodes were collected for IFN-β quantification. […] In addition, the systemic level of TNF-α, an indicator of reactogenicity, was also monitored following the footpad administration of free cd-GMP and cd-GMP nanoparticles.

[4] = Encapsulation efficiency of thin-shell polymeric nanoparticles; format: physicochemical; conditions: for encapsulation efficiency: cargo in thin-shell hollow PLGA nanoparticles
HeLa cells = assay: Association of cGAMP adjuvant with HeLa cells and cisplatin-induced debris (confocal, FACS); format: cell-based

Molecule: 2′-[DY-547]-AHC-c-diGMP [free adjuvant]
- adjuvant association within the cancer cells (B16-OVA tumors [1]; flow cytometry and confocal microscopy of extracted cells): little adjuvant retention
- adjuvant retention inside the tumor (B16-OVA tumors [1]; whole body imaging): little adjuvant retention

Molecule: N.N.[Cl][Pt][Cl] [CTTP only, cisplatin]
- tumor regression (B16-OVA tumors [2]): neither CTTP only nor NP only treatment induced tumor regression

Molecule: Nc1nc2c(ncn2[C@@H]2O[C@@H]3COP(=O)(O)O[C@H]4[C@@H](O)[C@H](n5cnc6c(=O)[nH]c(N)nc65)O[C@@H]4COP(=O)(O)O[C@H]3[C@H]2O)c(=O)[nH]1 [cyclic di-GMP]
- serum level of TNF-α (indicator of reactogenicity) [3]: elevated level
- encapsulation efficiency [4]: 37%
- encapsulation efficiency ([4]; listed as cd-GMP): about 40%
- cargo molecules per nanoparticle ([4]; loading concentration 8 mM DNA, 50 mg/mL BSA, cd-GMP at about 40% efficiency): approximately 2,000

Molecule: Nc1nc2c(ncn2[C@@H]2O[C@@H]3COP(=O)(O)O[C@H]4[C@@H](O)[C@H](n5cnc6c(N)ncnc65)O[C@@H]4COP(=O)(O)O[C@@H]2[C@@H]3O)c(=O)[nH]1 [free cGAMP, 2′3′-cGAMP]
- capacity to associate with the cells (HeLa cells): little capacity

Molecule: dye-labelled BSA: dye-labelled bovine serum albumin cargo
- encapsulation efficiency [4]: 35%
